Where “and” joins values, the source holds several entries; their conditions need not be identical. Equal values may be shown once. Read-outs that look alike come from different tables or passages of the source.
Test: Mouse blood and tissue PK (LC/MS-MS)
Assay type: in vivo
Conditions: for AUC(0-t): read-out: Blood AUClast; for half-life: read-out: Blood t1/2 (converted); for concentration at 4 h: read-out: RMC-6236 (nM) Tumor
Experimental: For single-dose PKPD study, mice were randomized and assigned into groups (n = 3/dose/time point). […] Blood and tissues, including the tumor, brain, colon, ear skin, and muscle, were harvested at indicated time points. […] The whole blood, tumor, brain, colon, and ear skin concentrations of RMC-6236 were determined using liquid chromatography–tandem mass spectrometry (LC/MS-MS) methods. […] After thorough mixing and centrifugation, the supernatant was diluted with water or directly analyzed on a Sciex 5500 or Sciex 6500+ triple quadrupole mass spectrometer equipped with an ACQUITY or Shimadzu UPLC system. […] Bioanalysis on blood and tissue samples from xenograft models was run at Pharmaron and Wuxi AppTec. Concentrations reported as below the quantification limit were treated as zero for PK analysis. PK parameters were calculated by noncompartmental analysis of the concentration–time profiles using Phoenix WinNonLin (version 8.3 Certara). Apparent terminal elimination half-life (t1/2) values were calculated as ln(2)/k, where k represents the terminal elimination rate constant. Area under the concentration–time curve (AUC) values were estimated using a linear trapezoidal method. AUClast values were calculated from the dosing time to the last quantifiable concentration. Maximum concentration (Cmax) was recorded as observed.

[1] = Balb/c nude, mouse, whole blood, po, 25 mg/kg, LU99-luc IC (25 mg/kg), single dose
[2] = Balb/c nude, mouse, whole blood, sc, 25 mg/kg, LU99-luc SC (25 mg/kg), single dose
[3] = Capan-2 (10 mg/kg), single dose
[4] = Capan-2 (25 mg/kg), single dose
[5] = LU99-luc IC #2 (25 mg/kg), adjacent normal brain
[6] = LU99-luc IC #2 (25 mg/kg), intracranial tumor
[7] = LU99-luc IC (25 mg/kg), intracranial tumor
[8] = LU99-luc SC (25 mg/kg), subcutaneous xenograft tumor
[9] = NCI-H358 (25 mg/kg), single dose
[10] = NCI-H441 #2 (25 mg/kg), QD x 10 days
[11] = NCI-H441 (3 mg/kg), single dose
[12] = NCI-H441 (10 mg/kg), single dose
[13] = NCI-H441 (25 mg/kg), single dose

CCn1c(-c2cc(N3CCN(C)CC3)cnc2[C@H](C)OC)c2c3cc(ccc31)-c1csc(n1)C[C@H](NC(=O)[C@H]1C[C@@H]1C)C(=O)N1CCC[C@H](N1)C(=O)OCC(C)(C)C2 [RMC-6236]
AUC(0-t) [1]: 16700 ng·h/mL | half-life [1]: 229 min | Cmax [2]: 1650 ng/mL | AUC(0-t) [2]: 18600 ng·h/mL | half-life [2]: 188 min | Tumor AUClast (Capan-2 (3 mg/kg), single dose): 5138 ng·h/mL | Tumor Cmax (Capan-2 (3 mg/kg), single dose): 218 ng/mL | Tumor AUClast [3]: 23425 ng·h/mL | Tumor Cmax [3]: 906 ng/mL | Tumor AUClast [4]: 66696 ng·h/mL | Tumor Cmax [4]: 3000 ng/mL | concentration at 4 h (Capan-2, study Capan-2 #3_PHA 2020, 0.3 mg/kg, 2h): 21.6 nM and 12.8 nM | concentration at 4 h (Capan-2, study Capan-2 #3_PHA 2020, 0.3 mg/kg, 8h): 15.8 nM and 20.9 nM | concentration at 4 h (Capan-2, study Capan-2 #3_PHA 2020, 0.3 mg/kg, 24h): 7.5 nM and 9 nM | RMC-6236 (nM) Tumor (Capan-2, study Capan-2 #3_PHA 2020, 0.3 mg/kg, 48h): BQL | concentration at 4 h (Capan-2, study Capan-2 #3_PHA 2020, 3 mg/kg, 2h): 206 nM and 213 nM | concentration at 4 h (Capan-2, study Capan-2 #3_PHA 2020, 3 mg/kg, 8h): 232 nM and 155 nM | concentration at 4 h (Capan-2, study Capan-2 #3_PHA 2020, 3 mg/kg, 24h): 93 nM and 106 nM | concentration at 4 h (Capan-2, study Capan-2 #3_PHA 2020, 3 mg/kg, 48h): 29 nM and 32 nM | concentration at 4 h (Capan-2, study Capan-2 #3_PHA 2020, 10 mg/kg, 2h): 735 nM and 868 nM | concentration at 4 h (Capan-2, study Capan-2 #3_PHA 2020, 10 mg/kg, 8h): 784 nM and 1189 nM | concentration at 4 h (Capan-2, study Capan-2 #3_PHA 2020, 10 mg/kg, 24h): 388 nM and 425 nM | concentration at 4 h (Capan-2, study Capan-2 #3_PHA 2020, 10 mg/kg, 48h): 127 nM and 106 nM | concentration at 4 h (Capan-2, study Capan-2 #3_PHA 2020, 25 mg/kg, 2h): 1563 nM and 2949 nM | concentration at 4 h (Capan-2, study Capan-2 #3_PHA 2020, 25 mg/kg, 8h): 2249 nM and 3216 nM | concentration at 4 h (Capan-2, study Capan-2 #3_PHA 2020, 25 mg/kg, 24h): 1455 nM and 1672 nM | concentration at 4 h (Capan-2, study Capan-2 #3_PHA 2020, 40 mg/kg, 2h): 6510 nM and 4764 nM | concentration at 4 h (Capan-2, study Capan-2 #3_PHA 2020, 40 mg/kg, 8h): 4542 nM and 4547 nM | concentration at 4 h (Capan-2, study Capan-2 #3_PHA 2020, 40 mg/kg, 24h): 2254 nM | concentration at 4 h (Capan-2, study Capan-2 #3_PHA 2023, 3 mg/kg, 2h): 210.835 nM and 145.489 nM | concentration at 4 h (Capan-2, study Capan-2 #3_PHA 2023, 3 mg/kg, 4h): 272.483 nM and 245.358 nM | concentration at 4 h (Capan-2, study Capan-2 #3_PHA 2023, 3 mg/kg, 8h): 266.318 nM and 212.068 nM | concentration at 4 h (Capan-2, study Capan-2 #3_PHA 2023, 3 mg/kg, 24h): 131.926 nM and 103.198 nM | concentration at 4 h (Capan-2, study Capan-2 #3_PHA 2023, 3 mg/kg, 48h): 42.167 nM and 42.4136 nM | concentration at 4 h (Capan-2, study Capan-2 #3_PHA 2023, 10 mg/kg, 2h): 596.75 nM and 1028.28 nM | concentration at 4 h (Capan-2, study Capan-2 #3_PHA 2023, 10 mg/kg, 4h): 1166.37 nM and 954.307 nM | concentration at 4 h (Capan-2, study Capan-2 #3_PHA 2023, 10 mg/kg, 8h): 1105.96 nM and 773.062 nM | concentration at 4 h (Capan-2, study Capan-2 #3_PHA 2023, 10 mg/kg, 24h): 401.943 nM and 517.841 nM | concentration at 4 h (Capan-2, study Capan-2 #3_PHA 2023, 10 mg/kg, 48h): 125.761 nM and 157.818 nM | concentration at 4 h (Capan-2, study Capan-2 #3_PHA 2023, 25 mg/kg, 2h): 1750.8 nM and 1824.77 nM | concentration at 4 h (Capan-2, study Capan-2 #3_PHA 2023, 25 mg/kg, 4h): 5030.45 nM and 3020.74 nM | concentration at 4 h (Capan-2, study Capan-2 #3_PHA 2023, 25 mg/kg, 8h): 2379.6 nM and 2700.17 nM | concentration at 4 h (Capan-2, study Capan-2 #3_PHA 2023, 25 mg/kg, 24h): 1997.39 nM and 1442.56 nM | concentration at 4 h (Capan-2, study Capan-2 #3_PHA 2023, 50 mg/kg, 2h): 5178.41 nM and 4956.48 nM | concentration at 4 h (Capan-2, study Capan-2 #3_PHA 2023, 50 mg/kg, 4h): 6411.36 nM and 6731.93 nM | concentration at 4 h (Capan-2, study Capan-2 #3_PHA 2023, 50 mg/kg, 8h): 6251.08 nM and 3945.45 nM | concentration at 4 h (Capan-2, study Capan-2 #3_PHA 2023, 50 mg/kg, 24h): 2996.08 nM and 1775.45 nM | concentration at 4 h (Capan-2, study Capan-2 #3_PHA 2023, 100 mg/kg, 2h): 9025.23 nM and 8877.27 nM | concentration at 4 h (Capan-2, study Capan-2 #3_PHA 2023, 100 mg/kg, 4h): 16521.6 nM and 11417.2 nM | concentration at 4 h (Capan-2, study Capan-2 #3_PHA 2023, 100 mg/kg, 8h): 14795.5 nM and 9185.51 nM | concentration at 4 h (Capan-2, study Capan-2 #3_PHA 2023, 100 mg/kg, 24h): 4216.7 nM and 3328.98 nM | concentration at 4 h (Capan-2, study Capan-2 #3_PHA 2023, 100 mg/kg, 48h): 1124.45 nM and 1331.59 nM | concentration at 4 h (HPAC #3, 50 mg/kg, 24h, individual animals, 50 mg/kg): 3354 nM | concentration at 4 h (HPAC #3, 50 mg/kg, 48h, individual animals, 50 mg/kg): 1332 nM and 1603 nM | concentration at 4 h (HPAC #4, 3 mg/kg, 4h, individual animals, 3 mg/kg): 108 nM and 297 nM and 238 nM | concentration at 4 h (HPAC #4, 3 mg/kg, 8h, individual animals, 3 mg/kg): 335 nM and 387 nM | concentration at 4 h (HPAC #4, 3 mg/kg, 24h, individual animals, 3 mg/kg): 207 nM and 164 nM | RMC-6236 (nM) Tumor (HPAC #4, 3 mg/kg, 48h, individual animals): BQL | concentration at 4 h (HPAC #4, 3 mg/kg, 48h, individual animals, 3 mg/kg): 29.3 nM | concentration at 4 h (HPAC #4, 10 mg/kg, 4h, individual animals, 10 mg/kg): 957 nM and 831 nM | concentration at 4 h (HPAC #4, 10 mg/kg, 8h, individual animals, 10 mg/kg): 1566 nM and 1418 nM | concentration at 4 h (HPAC #4, 10 mg/kg, 24h, individual animals, 10 mg/kg): 386 nM and 374 nM | concentration at 4 h (HPAC #4, 10 mg/kg, 48h, individual animals, 10 mg/kg): 210 nM and 212 nM | concentration at 4 h (HPAC #4, 25 mg/kg, 4h, individual animals, 25 mg/kg): 2897 nM and 4130 nM | RMC-6236 (nM) Tumor (HPAC #11, 0.3 mg/kg, 4h, individual animals): BQL | RMC-6236 (nM) Tumor (HPAC #11, 0.3 mg/kg, 8h, individual animals): BQL | RMC-6236 (nM) Tumor (HPAC #11, 0.3 mg/kg, 24h, individual animals): BQL | RMC-6236 (nM) Tumor (HPAC #11, 0.3 mg/kg, 48h, individual animals): BQL | RMC-6236 (nM) Tumor (HPAC #11, 1 mg/kg, 24h, individual animals): BQL | RMC-6236 (nM) Tumor (HPAC #11, 1 mg/kg, 48h, individual animals): BQL | Tumor AUClast (HPAC (25 mg/kg), single dose): 79219 ng·h/mL | Tumor Cmax (HPAC (25 mg/kg), single dose): 3007 ng/mL | Tumor AUClast (KP-4 (25 mg/kg), single dose): 79463 ng·h/mL | Tumor Cmax (KP-4 (25 mg/kg), single dose): 3582 ng/mL | Brain AUClast [5]: 396 ng·h/mL | Brain Cmax [5]: 63.2 ng/mL | Tumor AUClast [6]: 2537 ng·h/mL | Tumor Cmax [6]: 139 ng/mL | Tumor AUClast [7]: 2004 ng·h/mL | Tumor Cmax [7]: 142 ng/mL | Tumor AUClast (h × ng/mL) [8]: 75128 #2 h × ng/mL | Tumor Cmax (ng/mL) [8]: 2367 #2 ng/mL | Tumor AUClast [9]: 51307 ng·h/mL | Tumor Cmax [9]: 3083 ng/mL | Tumor AUClast [10]: 32762 ng·h/mL | Tumor Cmax [10]: 1527 ng/mL | Tumor AUClast [11]: 6321 ng·h/mL | Tumor Cmax [11]: 253 ng/mL | Tumor AUClast [12]: 17526 ng·h/mL | Tumor Cmax [12]: 821 ng/mL | Tumor AUClast [13]: 55019 ng·h/mL | Tumor Cmax [13]: 2083 ng/mL | RMC-6236 (nM) Tumor (NCI-H441 xenograft tumor, study NCI-H441#10, 0.3 mg/kg, 48h): BQL | RMC-6236 (nM) Tumor (NCI-H441 xenograft tumor, study NCI-H441#10, 1 mg/kg, 48h): BQL | RMC-6236 (nM) Tumor (NCI-H441 xenograft tumor, study NCI-H441#13, 0.3 mg/kg, 24h): BQL
